Legend:
Adjuvansarthritis = assay: Adjuvant arthritis test in the rat; format: in vivo; details: po, Ratten, peroral, read-out: hoch aktiv bei peroralen Dosen bis hinunter zu
Description: Die Verbindungen der Erfindung zeigen wertvolle pharmakologische Eigenschaften, in erster Linie antiinflammatorische und antiarthritische Wirkungen. Diese können in in-vitro oder in-vivo Versuchen nachgewiesen werden. In den letzteren werden vorzugsweise Säugetiere, z.B. Ratten, Katzen, Meerschweinchen oder Hunde als Testobjekte verwendet. Die Verbindungen der Erfindung können ihnen enteral, vorzugsweise oral, parenteral, z.B. subkutan oder intravenös, oder topisch, z.B. in Form von Lösungen in Wasser oder Oel, oder in Form von Stärke enthaltenden Suspensionen, verabreicht werden. Die verwendete Dosis kann in einem Bereich von ungefähr zwischen 0,1 und 100 mg/kg/Tag, vorzugsweise ungefähr 1 und 50 mg/kg/Tag, in erster Linie ungefähr 2 und. 25 mg/kg/Tag, liegen. Die für die genannten Wirkungen gewählten Tests sind entweder klassische Versuchsmethoden, z.B.der Carrageenin-Pfotenödem- oder der Adjuvansarthritis-Test in der Ratte, der Synoviitis-Versuch am Hund oder der Test, in welchem das durch ultraviolettes Licht hervorgerufene Erythem ausgewertet wird, oder moderne Testmethoden. Solche sind die neutrale Protease Hemmung [beschrieben in Arthritis Rheum. 17, 47 (1974)] oder die Hemmung der Leukozyten Chemotaxis [N.Y.Acad. Sci., 256, 177 (1975)]. […]

[1] = system: BCG-immunisierten Makrophagen; format: cell-based, Charles River-Ratten; details: in vitro, result in words

SMILES	minimal effective dose (Adjuvansarthritis) [mg/kg/day]	Einfluss auf die Makrophagen-Chemotaxis [1]
Cn1cccc1C(=O)C(C#N)C(=O)Nc1ccccc1 (stereo not drawn) [1-Methyl-β-oxo-α-phenylcarbamoyl-2-pyrrol-propionitril]	≥ 2	–
COc1ccc2c(c1)c(CC(=O)O)c(C)n2C(=O)c1ccc(Cl)cc1 [Indomethacin]	–	beeinflusst das Indomethacin die Makrophagen-Chemotaxis nicht
